Assay results as given in ChEMBL document CHEMBL4818987, “Recent advances of podophyllotoxin/epipodophyllotoxin hybrids in anticancer activity, mode of action, and structure-activity relationship: An update (2010-2020)” (Eur J Med Chem, 2020).

Key:
[1] = target: Prostaglandin G/H synthase 2 (Mus musculus, UniProt Q05769); experiment: Inhibition of mouse COX2
[2] = target: Prostaglandin G/H synthase 2 (Mus musculus, UniProt Q05769, V509I); experiment: Inhibition of mouse COX2 V523I mutant
[3] = target: Prostaglandin G/H synthase 2 (Mus musculus, UniProt Q05769, S516A); experiment: Inhibition of mouse COX2 S530A mutant
[4] = target: Prostaglandin G/H synthase 2 (Mus musculus, UniProt Q05769, R106Q); experiment: Inhibition of mouse COX2 R120Q mutant
RKO = experiment: Antiproliferative activity against human RKO cells incubated for 48 hrs by CCK8 assay; type: functional, cell-based
HCT-116 = experiment: Antiproliferative activity against human HCT116 cells incubated for 48 hrs by CCK8 assay; type: functional, cell-based; conditions: HCT-116, 48 h
MDA-MB-231 = experiment: Antiproliferative activity against human MDA-MB-231 cells incubated for 48 hrs by CCK8 assay; type: functional, cell-based; conditions: MDA-MB-231, 48 h
[5] = Antiproliferative activity against human HCA7 cells incubated for 48 hrs by CCK8 assay; type: functional, cell-based; conditions: HCA-7, 48 h
IMR-5 = experiment: Antiproliferative activity against human IMR5 cells incubated for 48 hrs by CCK8 assay; type: functional, cell-based; conditions: IMR-5, 48 h
NCI-H292 = experiment: Antiproliferative activity against human NCI-H292 cells incubated for 48 hrs by CCK8 assay; type: functional, cell-based; conditions: NCI-H292, 48 h
RAW264.7 = experiment: Antiproliferative activity against mouse RAW264.7 cells incubated for 48 hrs by CCK8 assay; type: functional, cell-based; conditions: RAW264.7, 48 h
[6] = Antitumor activity against human HNSCC-1483 cells xenografted in mouse assessed as reduction in tumor growth at 2 mg/kg administered for 14 days and measured on day 2 to day 15 by electronic caliper method relative to control; type: functional; conditions: MDA-1483, 336 h, time 14 day, read-out: TGI
A549 [7] = experiment: Antiproliferative activity against human A549 cells incubated for 72 hrs by MTT assay; type: functional, cell-based; conditions: A549, 72 h
MCF7 [8] = experiment: Antiproliferative activity against human MCF7 cells incubated for 48 hrs by MTT assay; type: functional, cell-based; conditions: MCF7, 48 h
A549 [9] = experiment: Potency index, ratio of etoposide IC50 to test compound IC50 for antiproliferative activity against human A549 cells; type: functional
MCF7 [10] = experiment: Potency index, ratio of etoposide IC50 to test compound IC50 for antiproliferative activity against human MCF7 cells; type: functional
SW480 [11] = experiment: Antiproliferative activity against human SW480 cells incubated for 48 hrs by MTT assay; type: functional, cell-based; conditions: SW480, 48 h
SMMC-7721 [12] = experiment: Antiproliferative activity against human SMMC-7721 cells incubated for 48 hrs by MTT assay; type: functional, cell-based; conditions: SMMC-7721, 48 h
HL-60 [13] = experiment: Antiproliferative activity against human HL-60 cells incubated for 48 hrs by MTT assay; type: functional, cell-based; conditions: HL-60, 48 h
SMMC-7721 [14] = experiment: Potency index, ratio of etoposide IC50 to test compound IC50 for antiproliferative activity against human SMMC7721 cells; type: functional
SW480 [15] = experiment: Potency index, ratio of etoposide IC50 to test compound IC50 for antiproliferative activity against human SW480 cells; type: functional
HL-60 [16] = experiment: Potency index, ratio of etoposide IC50 to test compound IC50 for antiproliferative activity against human HL60 cells; type: functional
HepG2 [17] = experiment: Antiproliferative activity against human HepG2 cells incubated for 48 hrs by MTT assay; type: functional, cell-based; conditions: HepG2, 48 h
[18] = Antiproliferative activity against human HCCLM3 cells incubated for 48 hrs by MTT assay; type: functional, cell-based; conditions: HCCLM3, 48 h
HepG2 [19] = experiment: Antitumor activity against human HepG2 cells xenografted in BALB/c nude mouse assessed as tumor weight suppression at 1 mg/kg, ip administered every 6 days for 20 days and measured every 2 days by digital caliper method relative to control; type: functional, organism-based; conditions: time 20 day
MKN-45 [20] = experiment: Antiproliferative activity against human MKN-45 cells incubated for 72 hrs by MTT assay; type: functional, cell-based; conditions: Homo sapiens, MKN-45, 72 h
BGC-823 [21] = experiment: Potency index, ratio of etoposide IC50 to test compound IC50 for antiproliferative activity against human BGC-823 cells; type: functional
BGC-823 [22] = experiment: Antiproliferative activity against human BGC-823 cells incubated for 72 hrs by MTT assay; type: functional, cell-based; conditions: BGC-823, 72 h
MKN-45 [23] = experiment: Potency index, ratio of etoposide IC50 to test compound IC50 for antiproliferative activity against human MKN-45 cells; type: functional
DU-145 = experiment: Antiproliferative activity against human DU145 cells by MTT assay; type: functional, cell-based

Chain of Prostaglandin G/H synthase 2 (Mus musculus, UniProt Q05769) (Q05769 whole entry): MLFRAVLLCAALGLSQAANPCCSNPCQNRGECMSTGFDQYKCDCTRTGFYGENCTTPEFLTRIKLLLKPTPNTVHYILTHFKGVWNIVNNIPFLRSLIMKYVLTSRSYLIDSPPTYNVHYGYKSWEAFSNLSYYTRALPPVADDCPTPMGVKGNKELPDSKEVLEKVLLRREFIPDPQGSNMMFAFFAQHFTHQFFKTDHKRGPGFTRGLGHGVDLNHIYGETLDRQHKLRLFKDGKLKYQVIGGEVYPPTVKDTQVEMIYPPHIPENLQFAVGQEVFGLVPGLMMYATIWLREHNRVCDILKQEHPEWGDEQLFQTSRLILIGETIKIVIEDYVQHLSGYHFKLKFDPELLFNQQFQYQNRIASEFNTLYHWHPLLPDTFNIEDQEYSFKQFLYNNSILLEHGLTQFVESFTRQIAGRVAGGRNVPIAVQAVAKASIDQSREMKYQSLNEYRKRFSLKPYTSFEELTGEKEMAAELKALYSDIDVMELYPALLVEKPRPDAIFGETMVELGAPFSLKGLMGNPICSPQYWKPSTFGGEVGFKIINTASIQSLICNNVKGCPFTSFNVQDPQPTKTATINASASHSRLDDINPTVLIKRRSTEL
Chain of Prostaglandin G/H synthase 2 (Mus musculus, UniProt Q05769, R106Q) (Q05769 18-604 R106Q limits assumed): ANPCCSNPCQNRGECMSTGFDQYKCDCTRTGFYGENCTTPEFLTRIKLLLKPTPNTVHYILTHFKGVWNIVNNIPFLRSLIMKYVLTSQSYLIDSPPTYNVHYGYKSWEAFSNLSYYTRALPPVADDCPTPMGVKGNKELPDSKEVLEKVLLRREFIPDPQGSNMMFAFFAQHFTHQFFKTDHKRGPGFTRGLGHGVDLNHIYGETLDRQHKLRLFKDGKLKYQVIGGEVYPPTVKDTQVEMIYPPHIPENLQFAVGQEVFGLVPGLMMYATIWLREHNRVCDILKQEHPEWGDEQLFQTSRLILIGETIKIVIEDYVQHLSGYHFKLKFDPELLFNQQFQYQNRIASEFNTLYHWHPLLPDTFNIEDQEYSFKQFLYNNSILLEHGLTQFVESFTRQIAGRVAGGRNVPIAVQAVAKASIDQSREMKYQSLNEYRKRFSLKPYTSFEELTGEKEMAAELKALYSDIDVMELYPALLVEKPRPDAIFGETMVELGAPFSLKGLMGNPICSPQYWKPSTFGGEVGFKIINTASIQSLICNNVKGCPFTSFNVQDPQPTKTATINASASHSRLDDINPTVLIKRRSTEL
Chain of Prostaglandin G/H synthase 2 (Mus musculus, UniProt Q05769, V509I) (Q05769 18-604 V509I limits assumed): as the sequence (Q05769 18-604 R106Q limits assumed) above, with Q89R, V492I counted along it
Chain of Prostaglandin G/H synthase 2 (Mus musculus, UniProt Q05769, S516A) (Q05769 18-604 S516A limits assumed): as the sequence (Q05769 18-604 R106Q limits assumed) above, with Q89R, S499A counted along it

`COc1ccc2c(c1)c(CC(=O)NCCCCNC(=O)CCC(=O)O[C@H]1c3cc4c(cc3[C@@H](c3cc(OC)c(OC)c(OC)c3)[C@H]3C(=O)OC[C@@H]31)OCO4)c(C)n2C(=O)c1ccc(Cl)cc1` showed an IC50 [1] of 90 nM, an IC50 [2] of 90 nM and an IC50 [3] of 90 nM. The IC50 [4] was 90 nM, the IC50 (RKO) was < 30 nM and the IC50 (HCT-116) was < 30 nM. For the same molecule, the IC50 (MDA-MB-231) was < 30 nM, the IC50 [5] was < 30 nM and the IC50 (IMR-5) was < 30 nM. For the same molecule, the IC50 (NCI-H292) was < 30 nM, the IC50 (RAW264.7) was < 30 nM and the inhibition in vivo at 2 mg/kg [6] was 50%.

In the case of `COc1cc([C@@H]2c3cc4c(cc3[C@@H](n3cc(CO[C@H]5O[C@H](CO)[C@H](O)[C@H](O)[C@H]5O)nn3)[C@H]3COC(=O)[C@H]23)OCO4)cc(OC)c1O`, the IC50 (A549 [7]) is reported as 2850 nM, the IC50 (MCF7 [8]) is reported as 2850 nM and the “Ratio IC50” value (A549 [9]) is reported as 2. The “Ratio IC50” value (MCF7 [10]) was 2, the IC50 (SW480 [11]) was 2850 nM and the IC50 (SMMC-7721 [12]) was 2850 nM. For the same molecule, the IC50 (HL-60 [13]) was 2850 nM, the “Ratio IC50” value (SMMC-7721 [14]) was 2 and the “Ratio IC50” value (SW480 [15]) was 2. The “Ratio IC50” value (HL-60 [16]) was 2.

With `COc1cc([C@@H]2c3cc4c(cc3[C@@H](OC(=O)CCSC(=S)N/N=C/c3ccccn3)[C@H]3COC(=O)[C@H]23)OCO4)cc(OC)c1O` the IC50 (HepG2 [17]) was 3890 nM, the IC50 [18] was 11000 nM and the Activity (HepG2 [19]) was 93.8%.

For `COc1cc([C@@H]2c3cc4c(cc3[C@H](OC(=O)/C=C(C)/C=C/C=C(C)/C=C/C3=C(C)CCCC3(C)C)[C@H]3COC(=O)[C@H]23)OCO4)cc(OC)c1OC`, the IC50 (MKN-45 [20]) was 419 nM, the “Ratio IC50” value (BGC-823 [21]) was 6.8 and the IC50 (BGC-823 [22]) was 202 nM. For the same molecule, the “Ratio IC50” value (MKN-45 [23]) was 6.8.

`COc1cc([C@@H]2c3cc4c(cc3[C@@H](OCc3cn([C@@H]5O[C@H](COC(C)=O)[C@@H](OC(C)=O)[C@H](OC(C)=O)[C@H]5OC(C)=O)nn3)[C@H]3COC(=O)[C@H]23)OCO4)cc(OC)c1OC` gave an IC50 (DU-145) of 1020 nM.
